What was measured:
[1] = target: cAMP-dependent protein kinase catalytic subunit alpha (Homo sapiens, UniProt P17612); assay: Inhibition of cAPK Calpha in presence of 1 mM ATP
[2] = target: T1, AMP-activated protein kinase, AMPK (Homo sapiens) (UniProt P54646+O43741+P54619+Q9UGJ0+Q9Y478+Q13131+Q9UGI9); assay: Inhibition of AMPK assessed as residual activity at 0.01 uM; format: protein-complex assay
[3] = target: T1, AMP-activated protein kinase, AMPK (Homo sapiens); assay: Inhibition of AMPK assessed as residual activity at 1 uM; format: protein-complex assay
[4] = target: Serine/threonine-protein kinase Sgk1 (Homo sapiens) (UniProt O00141); assay: Inhibition of SGK1 assessed as residual activity at 0.01 uM
[5] = target: Serine/threonine-protein kinase Sgk1 (Homo sapiens) (UniProt O00141); assay: Inhibition of SGK1 assessed as residual activity at 1 uM
[6] = target: Calcium/calmodulin-dependent protein kinase type 1 (Homo sapiens) (UniProt Q14012); assay: Inhibition of CAMK1 assessed as residual activity at 0.01 uM
[7] = target: Calcium/calmodulin-dependent protein kinase type 1 (Homo sapiens) (UniProt Q14012); assay: Inhibition of CAMK1 assessed as residual activity at 1 uM
[8] = target: Serine/threonine-protein kinase pim-2 (Homo sapiens) (UniProt Q9P1W9); assay: Inhibition of PIM2 assessed as residual activity at 0.01 uM
[9] = target: Serine/threonine-protein kinase pim-2 (Homo sapiens) (UniProt Q9P1W9); assay: Inhibition of PIM2 assessed as residual activity at 1 uM
[10] = target: Serine/threonine-protein kinase Chk1 (Homo sapiens) (UniProt O14757); assay: Inhibition of CHK1 assessed as residual activity at 0.01 uM
[11] = target: Serine/threonine-protein kinase Chk1 (Homo sapiens) (UniProt O14757); assay: Inhibition of CHK1 assessed as residual activity at 1 uM
[12] = target: 3-phosphoinositide-dependent protein kinase 1 (Homo sapiens) (UniProt O15530); assay: Inhibition of PDK1 assessed as residual activity at 0.01 uM
3-phosphoinositide-dependent protein kinase 1 (Homo sapiens), sequence (O15530 whole entry): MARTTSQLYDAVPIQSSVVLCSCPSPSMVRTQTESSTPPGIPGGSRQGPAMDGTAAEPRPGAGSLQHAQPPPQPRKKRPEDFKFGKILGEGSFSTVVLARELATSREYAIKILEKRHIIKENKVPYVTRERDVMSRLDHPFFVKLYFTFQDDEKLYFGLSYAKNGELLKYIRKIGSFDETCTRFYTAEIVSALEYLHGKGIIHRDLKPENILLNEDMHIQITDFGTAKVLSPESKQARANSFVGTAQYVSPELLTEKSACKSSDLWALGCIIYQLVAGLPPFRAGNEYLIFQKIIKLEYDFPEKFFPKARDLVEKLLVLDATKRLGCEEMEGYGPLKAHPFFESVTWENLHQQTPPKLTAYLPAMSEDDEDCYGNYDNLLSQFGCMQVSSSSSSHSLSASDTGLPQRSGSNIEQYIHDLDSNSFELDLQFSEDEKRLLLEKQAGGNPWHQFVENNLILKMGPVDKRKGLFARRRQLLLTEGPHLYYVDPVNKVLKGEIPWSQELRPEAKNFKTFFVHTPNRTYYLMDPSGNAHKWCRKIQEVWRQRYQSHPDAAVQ

Homo sapiens [13] = organism: Homo sapiens; assay: Inhibition of PKA assessed as residual activity at 0.01 uM
Homo sapiens [14] = organism: Homo sapiens; assay: Inhibition of PKA assessed as residual activity at 1 uM
[15] = target: RAC-beta serine/threonine-protein kinase (Homo sapiens) (UniProt P31751); assay: Inhibition of PKBbeta assessed as residual activity at 0.01 uM
[16] = target: RAC-beta serine/threonine-protein kinase (Homo sapiens) (UniProt P31751); assay: Inhibition of PKBbeta assessed as residual activity at 1 uM
[17] = target: Serine/threonine-protein kinase N2 (Homo sapiens) (UniProt Q16513); assay: Inhibition of PRK2 assessed as residual activity at 0.01 uM
[18] = target: Serine/threonine-protein kinase N2 (Homo sapiens) (UniProt Q16513); assay: Inhibition of PRK2 assessed as residual activity at 1 uM
[19] = target: Serine/threonine-protein kinase pim-1 (Homo sapiens) (UniProt P11309); assay: Inhibition of PIM1 assessed as residual activity at 0.01 uM
Serine/threonine-protein kinase pim-1 (Homo sapiens), sequence (P11309 whole entry, looked up): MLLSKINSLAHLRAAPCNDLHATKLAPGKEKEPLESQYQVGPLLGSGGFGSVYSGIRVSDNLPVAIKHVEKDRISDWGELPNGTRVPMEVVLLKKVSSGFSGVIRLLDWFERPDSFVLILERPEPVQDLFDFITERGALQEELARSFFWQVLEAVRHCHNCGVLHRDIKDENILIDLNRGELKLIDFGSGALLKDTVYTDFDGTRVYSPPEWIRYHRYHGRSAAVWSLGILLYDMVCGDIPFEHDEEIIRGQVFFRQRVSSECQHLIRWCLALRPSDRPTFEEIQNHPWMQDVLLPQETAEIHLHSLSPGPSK

[20] = target: Serine/threonine-protein kinase pim-1 (Homo sapiens) (UniProt P11309); assay: Inhibition of PIM1 assessed as residual activity at 1 uM
[21] = target: Ribosomal protein S6 kinase beta-1 (Homo sapiens) (UniProt P23443); assay: Inhibition of S6K1 assessed as residual activity at 0.01 uM
[22] = target: Ribosomal protein S6 kinase beta-1 (Homo sapiens) (UniProt P23443); assay: Inhibition of S6K1 assessed as residual activity at 1 uM
[23] = target: Serine/threonine-protein kinase PAK 5 (Homo sapiens) (UniProt Q9P286); assay: Inhibition of PAK5 assessed as residual activity at 0.01 uM
Serine/threonine-protein kinase PAK 5 (Homo sapiens), sequence (Q9P286 whole entry, looked up): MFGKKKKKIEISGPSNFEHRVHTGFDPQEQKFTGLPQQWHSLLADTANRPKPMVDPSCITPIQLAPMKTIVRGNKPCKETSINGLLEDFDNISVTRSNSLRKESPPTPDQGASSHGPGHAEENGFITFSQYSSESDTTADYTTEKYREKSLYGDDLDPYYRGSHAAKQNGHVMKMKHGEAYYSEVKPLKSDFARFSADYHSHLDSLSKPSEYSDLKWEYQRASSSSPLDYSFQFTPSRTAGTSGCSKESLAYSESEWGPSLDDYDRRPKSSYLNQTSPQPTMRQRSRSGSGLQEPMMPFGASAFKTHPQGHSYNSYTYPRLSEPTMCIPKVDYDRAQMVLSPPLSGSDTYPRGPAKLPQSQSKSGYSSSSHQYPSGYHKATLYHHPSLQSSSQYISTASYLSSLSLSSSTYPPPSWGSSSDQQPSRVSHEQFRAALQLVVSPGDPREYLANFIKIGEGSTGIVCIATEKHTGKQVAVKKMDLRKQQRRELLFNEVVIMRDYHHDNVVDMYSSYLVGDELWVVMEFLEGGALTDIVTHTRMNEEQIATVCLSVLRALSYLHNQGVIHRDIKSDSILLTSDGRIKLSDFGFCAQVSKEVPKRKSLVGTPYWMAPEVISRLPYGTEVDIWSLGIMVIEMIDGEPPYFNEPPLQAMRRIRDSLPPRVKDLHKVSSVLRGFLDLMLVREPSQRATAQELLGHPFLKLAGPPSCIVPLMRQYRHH

[24] = target: Serine/threonine-protein kinase PAK 5 (Homo sapiens) (UniProt Q9P286); assay: Inhibition of PAK5 assessed as residual activity at 1 uM
[25] = target: Maternal embryonic leucine zipper kinase (Homo sapiens) (UniProt Q14680); assay: Inhibition of MELK assessed as residual activity at 0.01 uM
[26] = target: Maternal embryonic leucine zipper kinase (Homo sapiens) (UniProt Q14680); assay: Inhibition of MELK assessed as residual activity at 1 uM
[27] = target: 3-phosphoinositide-dependent protein kinase 1 (Homo sapiens) (UniProt O15530); assay: Inhibition of PDK1 assessed as residual activity at 1 uM
[28] = target: Ribosomal protein S6 kinase alpha-3 (Homo sapiens) (UniProt P51812); assay: Inhibition of RSK2 assessed as residual activity at 0.01 uM
[29] = target: Ribosomal protein S6 kinase alpha-3 (Homo sapiens) (UniProt P51812); assay: Inhibition of RSK2 assessed as residual activity at 1 uM
[30] = target: Protein kinase C alpha type (Homo sapiens) (UniProt P17252); assay: Inhibition of PKCalpha assessed as residual activity at 0.01 uM
[31] = target: Protein kinase C alpha type (Homo sapiens) (UniProt P17252); assay: Inhibition of PKCalpha assessed as residual activity at 1 uM
[32] = target: RAC-alpha serine/threonine-protein kinase (Homo sapiens) (UniProt P31749); assay: Inhibition of PKBalpha assessed as residual activity at 0.01 uM
[33] = target: RAC-alpha serine/threonine-protein kinase (Homo sapiens) (UniProt P31749); assay: Inhibition of PKBalpha assessed as residual activity at 1 uM
[34] = target: Protein kinase C zeta type (Homo sapiens) (UniProt Q05513); assay: Inhibition of PKCzeta assessed as residual activity at 0.01 uM
Protein kinase C zeta type (Homo sapiens), sequence (Q05513 whole entry): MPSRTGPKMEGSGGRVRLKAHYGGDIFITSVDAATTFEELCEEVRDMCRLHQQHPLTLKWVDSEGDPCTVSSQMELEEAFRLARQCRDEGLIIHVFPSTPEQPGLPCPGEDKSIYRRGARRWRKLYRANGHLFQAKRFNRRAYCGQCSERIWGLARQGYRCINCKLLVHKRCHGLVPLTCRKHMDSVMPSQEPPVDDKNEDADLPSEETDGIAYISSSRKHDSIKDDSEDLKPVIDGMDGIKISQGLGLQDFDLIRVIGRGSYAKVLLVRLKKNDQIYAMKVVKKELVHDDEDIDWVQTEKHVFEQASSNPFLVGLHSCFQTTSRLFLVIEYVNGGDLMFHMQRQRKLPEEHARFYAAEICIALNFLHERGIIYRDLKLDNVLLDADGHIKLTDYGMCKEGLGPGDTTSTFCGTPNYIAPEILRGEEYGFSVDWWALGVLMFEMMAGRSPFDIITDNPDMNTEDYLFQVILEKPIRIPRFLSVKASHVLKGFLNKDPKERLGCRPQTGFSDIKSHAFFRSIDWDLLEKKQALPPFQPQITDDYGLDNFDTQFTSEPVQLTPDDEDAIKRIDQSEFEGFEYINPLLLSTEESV

[35] = target: Protein kinase C zeta type (Homo sapiens) (UniProt Q05513); assay: Inhibition of PKCzeta assessed as residual activity at 1 uM
[36] = target: Dual specificity tyrosine-phosphorylation-regulated kinase 3 (Homo sapiens) (UniProt O43781); assay: Inhibition of DYRK3 assessed as residual activity at 0.01 uM
Dual specificity tyrosine-phosphorylation-regulated kinase 3 (Homo sapiens), sequence (O43781 whole entry): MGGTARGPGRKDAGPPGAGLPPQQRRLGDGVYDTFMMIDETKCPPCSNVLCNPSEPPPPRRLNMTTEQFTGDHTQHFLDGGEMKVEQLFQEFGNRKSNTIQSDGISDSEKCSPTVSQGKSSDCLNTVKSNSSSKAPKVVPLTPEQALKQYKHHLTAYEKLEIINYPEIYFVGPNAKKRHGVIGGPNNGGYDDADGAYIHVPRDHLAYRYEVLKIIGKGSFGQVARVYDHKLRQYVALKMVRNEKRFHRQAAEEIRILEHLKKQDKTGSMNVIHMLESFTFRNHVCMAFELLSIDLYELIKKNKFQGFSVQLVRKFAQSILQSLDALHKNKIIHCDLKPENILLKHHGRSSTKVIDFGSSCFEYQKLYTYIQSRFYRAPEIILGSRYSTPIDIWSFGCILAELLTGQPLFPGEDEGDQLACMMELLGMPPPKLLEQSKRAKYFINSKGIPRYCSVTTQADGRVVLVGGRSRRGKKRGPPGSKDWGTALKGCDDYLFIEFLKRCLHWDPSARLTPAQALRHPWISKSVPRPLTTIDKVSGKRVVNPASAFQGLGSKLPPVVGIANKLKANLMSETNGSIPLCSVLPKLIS

[37] = target: Dual specificity tyrosine-phosphorylation-regulated kinase 3 (Homo sapiens) (UniProt O43781); assay: Inhibition of DYRK3 assessed as residual activity at 1 uM
[38] = target: Tyrosine-protein kinase Lck (Homo sapiens) (UniProt P06239); assay: Inhibition of Lck assessed as residual activity at 0.01 uM
[39] = target: Tyrosine-protein kinase Lck (Homo sapiens) (UniProt P06239); assay: Inhibition of Lck assessed as residual activity at 1 uM
[40] = target: Aurora kinase B (Homo sapiens) (UniProt Q96GD4); assay: Inhibition of AURORA B assessed as residual activity at 0.01 uM
[41] = target: Aurora kinase B (Homo sapiens) (UniProt Q96GD4); assay: Inhibition of AURORA B assessed as residual activity at 1 uM
[42] = target: Serine/threonine-protein kinase D1 (Homo sapiens) (UniProt Q15139); assay: Inhibition of PKD1 assessed as residual activity at 0.01 uM
[43] = target: Serine/threonine-protein kinase D1 (Homo sapiens) (UniProt Q15139); assay: Inhibition of PKD1 assessed as residual activity at 1 uM
[44] = target: Tyrosine-protein kinase CSK (Homo sapiens) (UniProt P41240); assay: Inhibition of CSK assessed as residual activity at 0.01 uM
[45] = target: Tyrosine-protein kinase CSK (Homo sapiens) (UniProt P41240); assay: Inhibition of CSK assessed as residual activity at 1 uM
[46] = target: Mitogen-activated protein kinase 3 (Homo sapiens) (UniProt P27361); assay: Inhibition of ERK1 assessed as residual activity at 0.01 uM
Mitogen-activated protein kinase 3 (Homo sapiens), sequence (P27361 whole entry): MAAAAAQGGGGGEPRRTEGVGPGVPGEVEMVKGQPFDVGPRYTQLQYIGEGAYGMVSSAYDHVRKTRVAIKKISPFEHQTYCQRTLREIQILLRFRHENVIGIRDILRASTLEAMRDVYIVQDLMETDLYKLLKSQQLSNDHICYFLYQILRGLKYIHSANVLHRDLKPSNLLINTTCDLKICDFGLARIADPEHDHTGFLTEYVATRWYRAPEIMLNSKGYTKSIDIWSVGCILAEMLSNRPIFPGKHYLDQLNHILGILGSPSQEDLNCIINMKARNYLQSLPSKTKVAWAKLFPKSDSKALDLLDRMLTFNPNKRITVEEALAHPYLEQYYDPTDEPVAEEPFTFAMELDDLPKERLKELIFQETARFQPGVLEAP

[47] = target: Mitogen-activated protein kinase 3 (Homo sapiens) (UniProt P27361); assay: Inhibition of ERK1 assessed as residual activity at 1 uM
[48] = target: Proto-oncogene tyrosine-protein kinase Src (Homo sapiens) (UniProt P12931); assay: Inhibition of Src assessed as residual activity at 0.01 uM
Proto-oncogene tyrosine-protein kinase Src (Homo sapiens), sequence (P12931 2-536 limits assumed): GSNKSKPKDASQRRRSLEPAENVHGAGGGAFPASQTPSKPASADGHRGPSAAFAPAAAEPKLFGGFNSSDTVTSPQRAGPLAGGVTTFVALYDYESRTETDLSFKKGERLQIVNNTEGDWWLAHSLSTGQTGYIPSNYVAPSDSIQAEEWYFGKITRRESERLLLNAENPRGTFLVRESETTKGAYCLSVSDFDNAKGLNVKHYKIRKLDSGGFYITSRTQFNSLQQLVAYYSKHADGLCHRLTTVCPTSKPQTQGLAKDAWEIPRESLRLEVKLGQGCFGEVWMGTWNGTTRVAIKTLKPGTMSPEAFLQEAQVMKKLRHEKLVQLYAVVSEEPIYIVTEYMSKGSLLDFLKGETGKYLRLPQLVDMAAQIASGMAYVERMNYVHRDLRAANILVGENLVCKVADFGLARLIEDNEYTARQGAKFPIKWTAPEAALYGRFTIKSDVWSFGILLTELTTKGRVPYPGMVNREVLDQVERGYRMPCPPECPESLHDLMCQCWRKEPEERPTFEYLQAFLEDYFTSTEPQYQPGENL

[49] = target: Proto-oncogene tyrosine-protein kinase Src (Homo sapiens) (UniProt P12931); assay: Inhibition of Src assessed as residual activity at 1 uM
[50] = target: Glycogen synthase kinase-3 beta (Homo sapiens) (UniProt P49841); assay: Inhibition of GSK3-beta assessed as residual activity at 0.01 uM
Glycogen synthase kinase-3 beta (Homo sapiens), sequence (P49841 whole entry, looked up): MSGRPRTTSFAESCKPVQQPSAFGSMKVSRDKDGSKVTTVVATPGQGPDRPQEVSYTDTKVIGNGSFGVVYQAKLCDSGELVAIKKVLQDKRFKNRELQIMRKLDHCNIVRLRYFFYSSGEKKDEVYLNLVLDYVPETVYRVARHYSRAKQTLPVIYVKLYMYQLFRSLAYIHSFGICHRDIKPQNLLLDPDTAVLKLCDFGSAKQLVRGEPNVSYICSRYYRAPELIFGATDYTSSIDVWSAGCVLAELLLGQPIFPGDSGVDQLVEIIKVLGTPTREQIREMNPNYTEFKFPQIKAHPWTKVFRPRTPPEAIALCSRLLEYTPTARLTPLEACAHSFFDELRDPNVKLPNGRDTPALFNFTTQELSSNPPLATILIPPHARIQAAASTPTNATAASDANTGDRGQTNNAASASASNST

[51] = target: Glycogen synthase kinase-3 beta (Homo sapiens) (UniProt P49841); assay: Inhibition of GSK3-beta assessed as residual activity at 1 uM
[52] = target: T2, Casein kinase II (Homo sapiens) (UniProt P67870+P68400+P19784); assay: Inhibition of CK2 assessed as residual activity at 0.1 uM; format: protein-complex assay
[53] = target: T2, Casein kinase II (Homo sapiens); assay: Inhibition of CK2 assessed as residual activity at 1 uM; format: protein-complex assay
[54] = target: MAP kinase-activated protein kinase 3 (Homo sapiens) (UniProt Q16644); assay: Inhibition of MAPKAP K3 assessed as residual activity at 0.01 uM
[55] = target: MAP kinase-activated protein kinase 3 (Homo sapiens) (UniProt Q16644); assay: Inhibition of MAPKAP K3 assessed as residual activity at 1 uM
[56] = target: MAP kinase-activated protein kinase 5 (Homo sapiens) (UniProt Q8IW41); assay: Inhibition of PRAK assessed as residual activity at 0.01 uM
[57] = target: MAP kinase-activated protein kinase 5 (Homo sapiens) (UniProt Q8IW41); assay: Inhibition of PRAK assessed as residual activity at 1 uM
[58] = target: Ribosomal protein S6 kinase alpha-1 (Homo sapiens) (UniProt Q15418); assay: Inhibition of RSK1 assessed as residual activity at 0.01 uM
[59] = target: Ribosomal protein S6 kinase alpha-1 (Homo sapiens) (UniProt Q15418); assay: Inhibition of RSK1 assessed as residual activity at 1 uM
[60] = target: Mitogen-activated protein kinase 10 (Homo sapiens) (UniProt P53779); assay: Inhibition of JNK3 assessed as residual activity at 0.01 uM
[61] = target: Mitogen-activated protein kinase 10 (Homo sapiens) (UniProt P53779); assay: Inhibition of JNK3 assessed as residual activity at 1 uM
[62] = target: Serine/threonine-protein kinase Nek6 (Homo sapiens) (UniProt Q9HC98); assay: Inhibition of NEK6 assessed as residual activity at 0.01 uM
[63] = target: Serine/threonine-protein kinase Nek6 (Homo sapiens) (UniProt Q9HC98); assay: Inhibition of NEK6 assessed as residual activity at 1 uM; format: functional
Homo sapiens [64] = organism: Homo sapiens; assay: Inhibition of CDK2/cyclin A assessed as residual activity at 0.01 uM
Homo sapiens [65] = organism: Homo sapiens; assay: Inhibition of CDK2/cyclin A assessed as residual activity at 1 uM

COC(=O)[C@H]1C[C@H](O)[C@@H](n2cnc3c(N)ncnc32)C1
IC50 [1]: > 1000 µM

N=C(N)NCCC[C@H](NC(=O)[C@H](CCCNC(=N)N)NC(=O)[C@H](CCCNC(=N)N)NC(=O)[C@H](CCCNC(=N)N)NC(=O)[C@H](CCCNC(=N)N)NC(=O)[C@H](CCCNC(=N)N)NC(=O)CCCCCNC(=O)[C@@H]1C[C@@H](O)[C@H](n2cnc3c(N)ncnc32)C1)C(N)=O
Activity [2]: 70%
Activity [3]: 12%
Activity [4]: 40%
Activity [5]: 19%
Activity [6]: 62%
Activity [7]: 19%
Activity [8]: 103%
Activity [9]: 20%
Activity [10]: 84%
Activity [11]: 27%
Activity [12]: 76%
Activity (Homo sapiens [13]): 7%
Activity (Homo sapiens [14]): 0%
Activity [15]: 74%
Activity [16]: 2%
Activity [17]: 59%
Activity [18]: 3%
Activity [19]: 92%
Activity [20]: 6%
Activity [21]: 81%
Activity [22]: 7%
Activity [23]: 71%
Activity [24]: 10%
Activity [25]: 86%
Activity [26]: 10%
Activity [27]: 28%
Activity [28]: 91%
Activity [29]: 28%
Activity [30]: 96%
Activity [31]: 30%
Activity [32]: 25%
Activity [33]: 32%
Activity [34]: 83%
Activity [35]: 33%
Activity [36]: 81%
Activity [37]: 51%
Activity [38]: 86%
Activity [39]: 63%
Activity [40]: 76%
Activity [41]: 72%
Activity [42]: 81%
Activity [43]: 73%
Activity [44]: 97%
Activity [45]: 77%
Activity [46]: 82%
Activity [47]: 84%
Activity [48]: 85%
Activity [49]: 84%
Activity [50]: 82%
Activity [51]: 88%
Activity [52]: 86%
Activity [53]: 88%
Activity [54]: 97%
Activity [55]: 91%
Activity [56]: 88%
Activity [57]: 96%
Activity [58]: 98%
Activity [59]: 98%
Activity [60]: 103%
Activity [61]: 104%
Activity [62]: 101%
Activity [63]: 111%
Activity (Homo sapiens [64]): 103%
Activity (Homo sapiens [65]): 114%
